Where only a bound is given, the exact number is not on record here.

The values below come from EP2769723A1, “Compounds for use in inhibiting HIV capsid assembly” (priority 2013, dated 2014).

The assay addresses T1, CA (Human immunodeficiency virus type 1 group M subtype B, UniProt P12493).
T1 construct: a fusion protein of CA with glutathione-S-transferase (CA-GST)
The assay can be described thus: ALPHA screen (AlphaScreen): inhibition of CAI binding to CA. The note with it: CAI-biotin peptide / CA-GST; compounds screened at 0.5-100 µM; read-out: α screen IC50. Set-up: species or system HIV-1. As to the method: The AlphaScreen experiments are performed using Perkin Elmer Enspire plate reader in white 96-well ProxiPlates and PBS supplemented with 0.05% Tween20, 2mM DTT, 2% DMSO. First, Streptavidin-coated Donor beads are used to capture the CAI-biotin peptide. In the other solution, a fusion protein of CA with glutathione-S-transferase (CA-GST) is mixed with GSH Acceptor beads. Both mixtures were incubated and then mixed together. To test the ability of prepared organic compounds to inhibit the CAI binding to CA, they are screened at concentrations between 0.5-100 µM and IC50 values are calculated from the influenced signals.
Upon illumination by laser at 680 nm, Donor beads containing the photosensitizer phthalocyanine convert ambient oxygen to an excited form of singlet oxygen ^1O2. Singlet oxygen can within its half-life of ~ 4 µs diffuse approximately 200 nm in solution. If an Acceptor bead is within that proximity, which is mostly upon CA:CAI interaction, energy is transferred from the singlet oxygen to thioxene derivates within the Acceptor and signal at 520 - 620 nm is emitted.
In general terms: Alpha assays give light when donor and acceptor beads are brought close together.

Turning to `Clc1ccc(-c2nc(Nc3ccc4[nH]nnc4c3)c3ccccc3n2)cc1` [AMR.3 71], the IC50 – broadly, the point on the concentration scale where inhibition reaches its midpoint – came out at 5 µM.
For `c1cncc(-c2nc(NCCCn3ccnc3)c3ccccc3n2)c1` [AMR.322] the value was over 200 µM; for `COc1ccc(Nc2nc(-c3cccnc3)nc3ccccc23)cc1OC` [AMR.328], 110 µM; for `Fc1ccc(Nc2nc(-c3cccnc3)nc3ccccc23)cc1` [AMR.331], 44.4 µM.
Then `Cc1cccc(Nc2nc(-c3cccnc3)nc3ccccc23)c1C` [AMR.334], with 43.2 µM; and `O=[N+]([O-])c1ccc(F)c(Nc2nc(-c3cccnc3)nc3ccccc23)c1` [AMR.335], with 6.5 µM; and `Cc1ccc(S(=O)(=O)NNc2nc(-c3cccnc3)nc3ccccc23)cc1` [AMR.336], with 119 µM.
As for `c1cncc(-c2nc(Nc3ccc(-n4ccnc4)cc3)c3ccccc3n2)c1` [AMR.341], the IC50 amounted to 31.5 µM.
Then `Clc1ccc(Cl)c(Nc2nc(-c3cccnc3)nc3ccccc23)c1` [AMR.345], with 22 µM.
Then `c1ccc2c(NCCCn3ccnc3)nc(-c3ccncc3)nc2c1` [AMR.347], with over 200 µM; and `O=[N+]([O-])c1ccc(F)c(Nc2nc(-c3ccncc3)nc3ccccc23)c1` [AMR.348], with 7.2 µM; and `COc1ccc(Nc2nc(-c3ccncc3)nc3ccccc23)cc1OC` [AMR.350], with over 200 µM.
For `CN(C)c1ccc(Nc2nc(-c3ccncc3)nc3ccccc23)cc1` [AMR.351] the value was 15.4 µM; for `Clc1ccc(Cl)c(Nc2nc(-c3ccncc3)nc3ccccc23)c1` [AMR.352], 191 µM; for `Fc1ccc(Nc2nc(-c3ccncc3)nc3ccccc23)cc1` [AMR.353], over 200 µM.
`Cc1cccc(Nc2nc(-c3ccncc3)nc3ccccc23)c1C` [AMR.354]: the IC50 was 165 µM.
As for `Cc1ccnc(Nc2nc(-c3ccncc3)nc3ccccc23)c1` [AMR.355], the IC50 turned out to be 25 µM.
For `Cc1ccc(S(=O)(=O)NNc2nc(-c3ccncc3)nc3ccccc23)cc1` [AMR.356] the value was 156 µM; for `c1ccc2c(Nc3ccc4[nH]nnc4c3)nc(-c3ccncc3)nc2c1` [AMR.358], 5 µM.
Then `c1ccc2c(Nc3ccc(-n4ccnc4)cc3)nc(-c3ccncc3)nc2c1` [AMR.359], with 37.5 µM; and `CCOC(=O)c1ccc(Nc2nc(-c3ccc(Cl)cc3)nc3ccccc23)cc1` [AMR.361], with over 200 µM; and `Clc1ccc(-c2nc(Nc3cc(Cl)ccc3Cl)c3ccccc3n2)cc1` [AMR.362], with over 200 µM.
Take `COc1ccc(Nc2nc(-c3ccc(Cl)cc3)nc3ccccc23)cc1OC` [AMR.363]: the IC50 turned out to be 54.8 µM.
Then `Fc1ccc(Nc2nc(-c3ccc(Cl)cc3)nc3ccccc23)cc1` [AMR.364], with over 200 µM; and `Cc1cccc(Nc2nc(-c3ccc(Cl)cc3)nc3ccccc23)c1C` [AMR.365], with over 200 µM.
Take `O=[N+]([O-])c1ccc(F)c(Nc2nc(-c3ccc(Cl)cc3)nc3ccccc23)c1` [AMR.366]: the IC50 is over 200 µM.
Then `Clc1ccc(-c2nc(NCCCn3ccnc3)c3ccccc3n2)cc1` [AMR.367], with over 200 µM; and `CN(C)c1ccc(Nc2nc(-c3ccc(Cl)cc3)nc3ccccc23)cc1` [AMR.368], with 33.7 µM.
For `Cc1ccc(S(=O)(=O)NNc2nc(-c3ccc(Cl)cc3)nc3ccccc23)cc1` [AMR.370] the value was over 200 µM; for `Cn1nnc2cc(Nc3nc(-c4cccnc4)nc4ccccc34)ccc21` [AMR.372], 6.4 µM.
For `Cn1nnc2cc(Nc3nc(-c4ccncc4)nc4ccccc34)ccc21` [AMR.373] the value was 17.3 µM; for `Cn1nnc2cc(Nc3nc(-c4ccc(Cl)cc4)nc4ccccc34)ccc21` [AMR.374], 6.6 µM.
On to `CN(C)c1ccc(Nc2nc(-c3cccnc3)nc3ccccc23)cc1` [AMR.378], for which the IC50 is over 200 µM.
For `CN(C)c1cccc(Nc2nc(-c3cccnc3)nc3ccccc23)c1` [AMR.379] the value was 217 µM.
Then `CN(C)c1cccc(Nc2nc(-c3ccc(Cl)cc3)nc3ccccc23)c1` [AMR.380], with 157 µM.
Then `CN(C)c1cccc(Nc2nc(-c3ccncc3)nc3ccccc23)c1` [AMR.381], with 130 µM.
Turning to `CCOC(=O)c1ccc(Nc2nc(-c3ccc(Cl)cc3Cl)nc3ccccc23)cc1` [AMR.390], the IC50 was over 200 µM.
For `O=[N+]([O-])c1ccc(F)c(Nc2nc(-c3ccc(Cl)cc3Cl)nc3ccccc23)c1` [AMR.391] the value was over 200 µM; for `Clc1ccc(-c2nc(NCCCn3ccnc3)c3ccccc3n2)c(Cl)c1` [AMR.392], over 200 µM; for `Clc1ccc(-c2nc(Nc3ccc4[nH]nnc4c3)c3ccccc3n2)c(Cl)c1` [AMR.393], 2 µM.
Then `COc1ccc(Nc2nc(-c3ccc(Cl)cc3Cl)nc3ccccc23)cc1OC` [AMR.395], with 121 µM; and `Clc1ccc(-c2nc(Nc3cc(Cl)ccc3Cl)c3ccccc3n2)c(Cl)c1` [AMR.396], with over 200 µM.
With `Fc1ccc(Nc2nc(-c3ccc(Cl)cc3Cl)nc3ccccc23)cc1` [AMR.397], the IC50 was over 200 µM.
Regarding `Cc1ccc(S(=O)(=O)NNc2nc(-c3ccccc3Cl)nc3ccccc23)cc1` [AMR.400], the IC50 was over 200 µM.
In the case of `Cn1nnc2cc(Nc3nc(-c4ccc(Cl)cc4Cl)nc4ccccc34)ccc21` [AMR.401], the IC50 came out at 41.8 µM.
Then `CN(C)c1ccc(Nc2nc(-c3ccc(Cl)cc3Cl)nc3ccccc23)cc1` [AMR.402], with 26.7 µM; and `CN(C)c1cccc(Nc2nc(-c3ccc(Cl)cc3Cl)nc3ccccc23)c1` [AMR.403], with 41.1 µM.
In the case of `O=[N+]([O-])c1ccc(F)c(Nc2nc(-c3ccccn3)nc3ccccc23)c1` [AMR.416], the IC50 turned out to be 2.3 µM.
For `Cn1nnc2cc(Nc3nc(-c4ccccn4)nc4ccccc34)ccc21` [AMR.421] the value was 33.7 µM.
Regarding `c1ccc(-c2nc(Nc3ccc4[nH]nnc4c3)c3ccccc3n2)nc1` [AMR.422], the IC50 was 3.2 µM.
Then `O=[N+]([O-])c1cc(F)ccc1Nc1nc(-c2cccnc2)nc2ccccc12` [AMR.426], with 14.5 µM; and `Fc1ccc(Cl)cc1Nc1nc(-c2cccnc2)nc2ccccc12` [AMR.427], with 16.5 µM.
For the compound `O=[N+]([O-])c1ccc(-c2nc(Nc3cc([N+](=O)[O-])ccc3F)c3ccccc3n2)cc1` [AMR.428], the IC50 was determined as 115 µM.
Then `O=[N+]([O-])c1ccc(-c2nc(Nc3ccc4[nH]nnc4c3)c3ccccc3n2)cc1` [AMR.429], with 2.4 µM.
Take `Cn1nnc2cc(Nc3nc(-c4ccc([N+](=O)[O-])cc4)nc4ccccc34)ccc21` [AMR.437]: the IC50 came out at 50.9 µM.
Then `O=[N+]([O-])c1ccc(F)c(Nc2nc(-c3ccc(C(F)(F)F)cc3)nc3ccccc23)c1` [AMR.444], with over 200 µM.
For `FC(F)(F)c1ccc(-c2nc(Nc3ccc4[nH]nnc4c3)c3ccccc3n2)cc1` [AMR.445], the IC50 was 53.2 µM.
`Cn1nnc2cc(Nc3nc(-c4ccc(C(F)(F)F)cc4)nc4ccccc34)ccc21` [AMR.446]: the IC50 came to 28.2 µM.
For `O=[N+]([O-])c1cc(Nc2nc(-c3ccncc3)nc3ccccc23)ccc1F` [AMR.449] the value was 2.9 µM; for `O=[N+]([O-])c1cc(F)ccc1Nc1nc(-c2ccncc2)nc2ccccc12` [AMR.450], 169 µM; for `Fc1ccc(Cl)cc1Nc1nc(-c2ccncc2)nc2ccccc12` [AMR.451], 15.1 µM.
In the case of `Fc1cc(Nc2nc(-c3ccncc3)nc3ccccc23)c(F)cc1Br` [AMR.455], the IC50 came out at 15.3 µM.
`O=[N+]([O-])c1ccc(O)c(Nc2nc(-c3ccncc3)nc3ccccc23)c1` [AMR.456]: the IC50 came to 10.2 µM.
For the compound `Cc1ccc(Nc2nc(-c3ccncc3)nc3ccccc23)c(O)c1` [AMR.457], the IC50 is over 200 µM.
For `O=[N+]([O-])c1cc(Nc2nc(-c3ccncc3)nc3ccccc23)ccc1O` [AMR.458] the value was 5.8 µM.
On to `O=[N+]([O-])c1cccc(O)c1Nc1nc(-c2ccncc2)nc2ccccc12` [AMR.461], for which the IC50 stood at 57.4 µM.
Take `O=C(O)c1ccc(Nc2nc(-c3ccncc3)nc3ccccc23)c(O)c1` [AMR.462]: the IC50 was 15.2 µM.
Then `Cn1nc2ccc(Nc3nc(-c4ccncc4)nc4ccccc34)cc2n1` [AMR.464], with 97.4 µM; and `CNc1ccc([N+](=O)[O-])cc1Nc1nc(-c2ccncc2)nc2ccccc12` [AMR.466], with 4.7 µM; and `CN(c1ccc2c(c1)nnn2C)c1nc(-c2ccncc2)nc2ccccc12` [AMR.471], with over 200 µM.
As for `O=[N+]([O-])c1ccc(F)c(Nc2ncnc3ccccc23)c1` [AMR.475], the IC50 is over 200 µM.
Then `c1ccc2c(Nc3ccc4[nH]nnc4c3)ncnc2c1` [AMR.476], with 137 µM; and `O=[N+]([O-])c1ccc(O)c(Nc2nc(-c3cccnc3)nc3ccccc23)c1` [AMR.481], with 2.1 µM.
In the case of `Fc1cc(Nc2nc(-c3cccnc3)nc3ccccc23)c(F)cc1Br` [AMR.483], the IC50 came to 16.1 µM.
For `Cc1ccc(Nc2nc(-c3cccnc3)nc3ccccc23)c(O)c1` [AMR.484] the value was 179 µM; for `O=[N+]([O-])c1cccc(O)c1Nc1nc(-c2cccnc2)nc2ccccc12` [AMR.492], 19.7 µM; for `O=C(O)c1ccc(Nc2nc(-c3cccnc3)nc3ccccc23)c(O)c1` [AMR.493], 30 µM.
For `CCOC(=O)c1ccc(Nc2cc(-c3cccnc3)nc3ccccc23)cc1` [AMR.504] the value was 76 µM.
